From patent publication EP0063826A2, “2-Amino-benzoic-acid derivatives, their preparation and their use as medicines or intermediates” (Dr. Karl Thomae GmbH, priority 1980, dated 1981) come the findings set out here.

The data set has as its system Mäusen. The data set is described as follows: Acute oral toxicity in mice (orienting). The data set is classed as in vivo. The note with it: 2 000 mg/kg by gavage, group of 10, observation 14 days. As to the method:
Die akute Toxizität wurde orientierend an Gruppen von 10 Mäusen (5 weibliche und 5 männliche Mäuse; Beobachtungszeit: 14 Tage) nach Gabe einer Dosis von 2 000 mg/kg pro Tier in Methylcellulose-Suspension per Schlundsonde bestimmt: […]

For `O=C(O)c1cc(Cl)ccc1N1CCC2(CC1)OCCO2` [Substanz A, 5-Chlor-2-(1,4-dioxa-8-aza-spiroL4,6/decan-8-yl)-benzoe-säure], the Tieren gestorben is on record as 0 von 10.
